The supplement of paper PMC10307832

Key:
Assay in all cases: relative viability (nuclei count vs DMSO), 5 days (fraction); higher = more cells survive
Kobe2602 + Phenformin = compound: C1=CC(=CC=C1NC(=S)NNC2=C(C=C(C=C2[N+](=O)[O-])C(F)(F)F)[N+](=O)[O-])F [Kobe2602] + N=C(N)NC(=N)NCCc1ccccc1 [Phenformin] (partner 250 µM)
How it was run: (§1)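 Lung cancer cell lines in 1536-well plates got either a single drug or a fixed anchor-drug dose together with five library-drug doses (not always all listed) in √10 steps, by pin tool, on the day after seeding. Nuclei were counted after 5 days, and relative viability is the treated-to-vehicle ratio of nuclei counts. Values are medians of duplicate plates.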

Zosuquidar + Bortezomib = compound: O[C@@H](COc1cccc2ncccc12)CN1CCN([C@@H]2c3ccccc3[C@@H]3[C@H](c4ccccc42)C3(F)F)CC1 [Zosuquidar] + CC(C)C[C@H](NC(=O)[C@H](Cc1ccccc1)NC(=O)c1cnccn1)B(O)O [Bortezomib] (partner 0.002 µM)
How it was run: as §1

Cabozantinib + Dasatinib = compound: COc1cc2nccc(Oc3ccc(NC(=O)C4(C(=O)Nc5ccc(F)cc5)CC4)cc3)c2cc1OC [Cabozantinib] + Cc1nc(Nc2ncc(C(=O)Nc3c(C)cccc3Cl)s2)cc(N2CCN(CCO)CC2)n1 [Dasatinib] (partner 0.075 µM)
How it was run: as §1

Kobe2602 + Crizotinib = compound: C1=CC(=CC=C1NC(=S)NNC2=C(C=C(C=C2[N+](=O)[O-])C(F)(F)F)[N+](=O)[O-])F [Kobe2602] + C[C@@H](Oc1cc(-c2cnn(C3CCNCC3)c2)cnc1N)c1c(Cl)ccc(F)c1Cl [Crizotinib] (partner 1 µM)
How it was run: as §1

Row | Cell Line | relative viability (Kobe2602 + Phenformin; first compound 0.2 µM) | relative viability (Kobe2602 + Phenformin; first compound 0.6325 µM) | relative viability (Kobe2602 + Phenformin; first compound 2 µM) | relative viability (Kobe2602 + Phenformin; first compound 6.325 µM) | relative viability (Kobe2602 + Phenformin; first compound 20 µM) | relative viability (Zosuquidar + Bortezomib; first compound 0.01 µM) | relative viability (Zosuquidar + Bortezomib; first compound 0.03162 µM) | relative viability (Zosuquidar + Bortezomib; first compound 0.1 µM) | relative viability (Zosuquidar + Bortezomib; first compound 0.3162 µM) | relative viability (Zosuquidar + Bortezomib; first compound 1 µM) | relative viability (Cabozantinib + Dasatinib; first compound 0.02 µM) | relative viability (Cabozantinib + Dasatinib; first compound 0.06325 µM) | relative viability (Cabozantinib + Dasatinib; first compound 0.2 µM) | relative viability (Cabozantinib + Dasatinib; first compound 0.6325 µM) | relative viability (Cabozantinib + Dasatinib; first compound 2 µM) | relative viability (Kobe2602 + Crizotinib; first compound 0.2 µM) | relative viability (Kobe2602 + Crizotinib; first compound 0.6325 µM) | relative viability (Kobe2602 + Crizotinib; first compound 2 µM) | relative viability (Kobe2602 + Crizotinib; first compound 6.325 µM) | relative viability (Kobe2602 + Crizotinib; first compound 20 µM)
1 | 201T | 0.463 | 0.449 | 0.425 | 0.394 | 0.405 | 1.09 | 1.05 | 0.939 | 1.05 | 1.06 | 0.385 | 0.549 | 0.573 | 0.534 | 0.545 | 1.07 | 1.02 | 1.04 | 1.02 | 1.1
2 | A549 | 0.163 | 0.182 | 0.199 | 0.192 | 0.196 | – | – | – | – | – | – | – | – | – | – | 0.759 | 0.723 | 0.781 | 0.764 | 0.8
3 | A-427 | 0.416 | 0.413 | 0.364 | 0.303 | 0.307 | 0.923 | 0.971 | 0.87 | 1.06 | 0.901 | 0.81 | 0.705 | 0.695 | 0.706 | 0.795 | 0.898 | 0.903 | 0.843 | 1 | 1.01
4 | ABC-1 | 0.215 | 0.233 | – | 0.211 | 0.227 | 0.361 | 0.328 | 0.322 | 0.379 | 0.269 | 0.515 | 0.567 | 0.596 | 0.55 | 0.525 | 1 | 1.04 | 1.06 | 1.21 | 1.08
5 | BEN | 0.264 | 0.295 | 0.302 | 0.246 | 0.25 | 0.928 | 0.734 | 0.651 | 0.882 | 0.773 | 0.294 | 0.391 | 0.313 | 0.318 | 0.232 | 0.948 | 0.727 | 0.894 | 0.843 | 0.819
6 | Calu-6 | – | – | – | – | – | 0.955 | 1.05 | 1.13 | 1.05 | 1.15 | – | – | – | – | – | 0.84 | 0.78 | 0.786 | 0.744 | 0.813
7 | EBC-1 | – | – | – | – | – | 0.649 | 0.553 | 0.652 | 0.591 | 0.547 | – | – | – | – | – | 0.225 | 0.239 | 0.185 | 0.203 | 0.216
8 | HCC-44 | 0.207 | 0.21 | 0.249 | 0.239 | 0.322 | 0.872 | 0.949 | 0.885 | 0.952 | 0.864 | – | – | – | – | – | 0.771 | 0.697 | 0.767 | 0.783 | 0.749
9 | IA-LM | – | – | – | – | – | 0.925 | 0.797 | 0.975 | 1.03 | 0.84 | – | – | – | – | – | 0.64 | 0.671 | 0.718 | 0.789 | 0.703
10 | LK-2 | 0.461 | 0.579 | 0.489 | 0.624 | 0.516 | – | – | – | – | – | – | 0.247 | – | 0.341 | 0.46 | 0.248 | 0.273 | 0.231 | 0.271 | 0.257
11 | NCI-H358 | 0.381 | 0.391 | 0.323 | 0.371 | 0.353 | – | – | – | – | – | 0.15 | 0.194 | 0.12 | 0.197 | 0.19 | 0.598 | 0.597 | 0.581 | 0.746 | 0.652
12 | NCI-H522 | 0.731 | 0.63 | 0.646 | 0.732 | 0.623 | – | – | – | – | – | 0.726 | 0.898 | 0.93 | 0.846 | 1.04 | – | – | – | – | –
13 | NCI-H1299 | – | – | – | – | – | 1.01 | 1.01 | 0.997 | 0.962 | 1.03 | – | – | – | – | – | 0.922 | 0.938 | 0.93 | 0.952 | 0.925
14 | NCI-H1395 | 0.484 | 0.435 | 0.453 | 0.451 | 0.456 | – | – | – | – | – | 0.363 | 0.473 | 0.423 | 0.458 | 0.37 | – | – | – | – | –
15 | NCI-H1623 | 0.633 | 0.571 | 0.563 | 0.555 | 0.589 | – | – | – | – | – | 0.483 | 0.606 | 0.486 | 0.486 | 0.568 | – | – | – | – | –
16 | NCI-H1703 | – | – | – | – | – | 0.441 | 0.329 | 0.371 | 0.397 | 0.567 | – | – | – | – | – | 0.775 | 0.66 | 0.56 | 0.829 | 0.501
17 | NCI-H1793 | 0.33 | 0.398 | 0.399 | 0.333 | 0.446 | – | – | – | – | – | 0.436 | 0.519 | 0.343 | 0.336 | 0.378 | – | – | – | – | –
18 | NCI-H1944 | 0.212 | 0.216 | 0.206 | 0.201 | 0.209 | – | – | – | – | – | 0.183 | 0.233 | 0.206 | 0.221 | 0.216 | 1.01 | 1.19 | 1.14 | 1.09 | 1.14
19 | NCI-H2170 | 0.414 | 0.475 | 0.423 | 0.406 | 0.403 | – | – | – | – | – | 0.622 | 0.57 | 0.373 | 0.542 | 0.591 | 1.22 | 1.21 | 1.14 | 1.31 | 1.13
20 | NCI-H2342 | 0.658 | 0.607 | 0.563 | 0.553 | 0.662 | – | – | – | – | – | 0.291 | 0.386 | 0.308 | 0.316 | 0.311 | – | – | – | – | –
21 | SK-MES-1 | 0.676 | 0.715 | 0.683 | 0.589 | 0.455 | – | – | – | – | – | 0.335 | 0.518 | 0.293 | 0.432 | 0.242 | 0.966 | 0.964 | 0.954 | 1.04 | 1
22 | SW 900 | 0.609 | 0.843 | 0.521 | 0.691 | 0.775 | – | – | – | – | – | 0.541 | 0.373 | 0.541 | 0.404 | 0.23 | – | – | – | – | –
